Activity calls are given as the source filed them.
Legend:
[1] = target: Protein-tyrosine kinase 6 (Homo sapiens, UniProt Q13882)
dCTP pyrophosphatase 1 = target: T1, dCTP pyrophosphatase 1 (Homo sapiens, UniProt Q9H773)
T1 sequence (Q9H773 whole entry): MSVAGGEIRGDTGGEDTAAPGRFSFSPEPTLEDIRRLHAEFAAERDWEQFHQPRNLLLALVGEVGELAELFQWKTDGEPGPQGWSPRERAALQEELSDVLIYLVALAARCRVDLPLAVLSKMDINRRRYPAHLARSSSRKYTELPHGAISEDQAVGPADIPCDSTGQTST

[2] = target: Casein kinase I isoform gamma-1 (Homo sapiens, UniProt Q9HCP0)
LIM domain kinase 1 = LIM domain kinase 1 (Homo sapiens, UniProt P53667)
[3] = target: Cyclin-dependent kinase 2 (Homo sapiens, UniProt P24941)
[4] = target: Casein kinase I isoform alpha (Homo sapiens, UniProt P48729)
[5] = target: Cyclin-dependent kinase 6 (Homo sapiens, UniProt Q00534)
[6] = target: T2, Ribosyldihydronicotinamide dehydrogenase [quinone] (Homo sapiens, UniProt P16083)
T2 sequence (P16083 whole entry): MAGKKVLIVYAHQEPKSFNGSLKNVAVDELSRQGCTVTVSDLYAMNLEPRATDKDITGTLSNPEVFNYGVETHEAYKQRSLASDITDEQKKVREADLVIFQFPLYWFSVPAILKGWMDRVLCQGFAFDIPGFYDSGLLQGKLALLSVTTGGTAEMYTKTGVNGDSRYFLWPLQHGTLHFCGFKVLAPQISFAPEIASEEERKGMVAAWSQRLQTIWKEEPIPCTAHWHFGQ

Adenosine kinase = Adenosine kinase (Homo sapiens, UniProt P55263)
Rab-like protein 3 = target: T3, Rab-like protein 3 (Homo sapiens, UniProt Q5HYI8)
T3 sequence (Q5HYI8 whole entry): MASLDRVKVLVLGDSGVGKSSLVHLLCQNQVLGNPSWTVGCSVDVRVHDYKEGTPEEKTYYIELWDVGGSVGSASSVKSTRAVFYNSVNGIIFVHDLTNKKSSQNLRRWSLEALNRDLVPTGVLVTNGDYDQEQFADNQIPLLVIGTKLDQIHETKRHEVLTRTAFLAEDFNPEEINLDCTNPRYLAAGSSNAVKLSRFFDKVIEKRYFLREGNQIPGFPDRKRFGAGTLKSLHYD

Myosin-14 = Myosin-14 (Homo sapiens, UniProt Q7Z406)
[7] = target: Putative heat shock protein HSP 90-beta 2 (Homo sapiens, UniProt Q58FF8)
[8] = target: Ribosomal protein S6 kinase alpha-4 (Homo sapiens, UniProt O75676)
[9] = target: Casein kinase I isoform epsilon (Homo sapiens, UniProt P49674)
[10] = target: Serine/threonine-protein kinase MRCK gamma (Homo sapiens, UniProt Q6DT37)
[11] = target: T4, Probable ATP-dependent RNA helicase DDX6 (Homo sapiens, UniProt P26196)
T4 sequence (P26196 whole entry): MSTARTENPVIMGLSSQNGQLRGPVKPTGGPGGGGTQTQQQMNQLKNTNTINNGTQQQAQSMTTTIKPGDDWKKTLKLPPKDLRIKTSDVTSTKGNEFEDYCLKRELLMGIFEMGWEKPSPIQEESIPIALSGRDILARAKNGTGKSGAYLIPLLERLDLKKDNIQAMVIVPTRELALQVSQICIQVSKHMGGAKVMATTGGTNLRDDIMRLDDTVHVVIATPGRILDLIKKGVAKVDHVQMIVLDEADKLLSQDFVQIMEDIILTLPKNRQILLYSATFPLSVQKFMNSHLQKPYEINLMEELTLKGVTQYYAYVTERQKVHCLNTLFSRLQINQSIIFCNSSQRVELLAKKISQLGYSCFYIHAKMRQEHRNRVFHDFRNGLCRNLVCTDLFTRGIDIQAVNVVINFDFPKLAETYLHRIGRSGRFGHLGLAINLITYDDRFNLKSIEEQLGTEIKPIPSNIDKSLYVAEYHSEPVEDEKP

[12] = target: T5, Cytochrome c1, heme protein, mitochondrial (Homo sapiens, UniProt P08574)
T5 sequence (P08574 whole entry): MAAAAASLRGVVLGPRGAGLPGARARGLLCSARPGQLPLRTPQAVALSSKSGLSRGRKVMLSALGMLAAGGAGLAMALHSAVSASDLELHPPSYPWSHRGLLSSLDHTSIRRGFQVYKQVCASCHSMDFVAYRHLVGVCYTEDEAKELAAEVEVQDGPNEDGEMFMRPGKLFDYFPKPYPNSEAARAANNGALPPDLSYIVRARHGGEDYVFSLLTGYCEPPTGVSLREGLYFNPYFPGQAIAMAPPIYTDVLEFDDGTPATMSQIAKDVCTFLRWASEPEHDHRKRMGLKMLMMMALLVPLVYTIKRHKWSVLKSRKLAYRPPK
Also: in the data inactive means no Kd found up to 30 µM.

Sequence of Protein-tyrosine kinase 6 (Q13882 whole entry): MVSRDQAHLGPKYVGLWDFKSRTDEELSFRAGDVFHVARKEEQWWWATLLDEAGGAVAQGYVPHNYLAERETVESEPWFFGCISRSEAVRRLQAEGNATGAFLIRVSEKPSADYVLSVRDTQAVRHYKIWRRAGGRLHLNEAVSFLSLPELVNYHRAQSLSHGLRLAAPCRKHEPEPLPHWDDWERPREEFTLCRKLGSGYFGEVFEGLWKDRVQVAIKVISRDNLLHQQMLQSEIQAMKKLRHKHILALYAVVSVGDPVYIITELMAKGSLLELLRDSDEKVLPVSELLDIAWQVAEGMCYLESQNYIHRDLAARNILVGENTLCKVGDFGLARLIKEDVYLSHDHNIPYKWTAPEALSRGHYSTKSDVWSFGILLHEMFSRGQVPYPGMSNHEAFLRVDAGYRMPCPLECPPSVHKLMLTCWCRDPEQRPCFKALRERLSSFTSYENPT
Sequence of Myosin-14 (Q7Z406 whole entry): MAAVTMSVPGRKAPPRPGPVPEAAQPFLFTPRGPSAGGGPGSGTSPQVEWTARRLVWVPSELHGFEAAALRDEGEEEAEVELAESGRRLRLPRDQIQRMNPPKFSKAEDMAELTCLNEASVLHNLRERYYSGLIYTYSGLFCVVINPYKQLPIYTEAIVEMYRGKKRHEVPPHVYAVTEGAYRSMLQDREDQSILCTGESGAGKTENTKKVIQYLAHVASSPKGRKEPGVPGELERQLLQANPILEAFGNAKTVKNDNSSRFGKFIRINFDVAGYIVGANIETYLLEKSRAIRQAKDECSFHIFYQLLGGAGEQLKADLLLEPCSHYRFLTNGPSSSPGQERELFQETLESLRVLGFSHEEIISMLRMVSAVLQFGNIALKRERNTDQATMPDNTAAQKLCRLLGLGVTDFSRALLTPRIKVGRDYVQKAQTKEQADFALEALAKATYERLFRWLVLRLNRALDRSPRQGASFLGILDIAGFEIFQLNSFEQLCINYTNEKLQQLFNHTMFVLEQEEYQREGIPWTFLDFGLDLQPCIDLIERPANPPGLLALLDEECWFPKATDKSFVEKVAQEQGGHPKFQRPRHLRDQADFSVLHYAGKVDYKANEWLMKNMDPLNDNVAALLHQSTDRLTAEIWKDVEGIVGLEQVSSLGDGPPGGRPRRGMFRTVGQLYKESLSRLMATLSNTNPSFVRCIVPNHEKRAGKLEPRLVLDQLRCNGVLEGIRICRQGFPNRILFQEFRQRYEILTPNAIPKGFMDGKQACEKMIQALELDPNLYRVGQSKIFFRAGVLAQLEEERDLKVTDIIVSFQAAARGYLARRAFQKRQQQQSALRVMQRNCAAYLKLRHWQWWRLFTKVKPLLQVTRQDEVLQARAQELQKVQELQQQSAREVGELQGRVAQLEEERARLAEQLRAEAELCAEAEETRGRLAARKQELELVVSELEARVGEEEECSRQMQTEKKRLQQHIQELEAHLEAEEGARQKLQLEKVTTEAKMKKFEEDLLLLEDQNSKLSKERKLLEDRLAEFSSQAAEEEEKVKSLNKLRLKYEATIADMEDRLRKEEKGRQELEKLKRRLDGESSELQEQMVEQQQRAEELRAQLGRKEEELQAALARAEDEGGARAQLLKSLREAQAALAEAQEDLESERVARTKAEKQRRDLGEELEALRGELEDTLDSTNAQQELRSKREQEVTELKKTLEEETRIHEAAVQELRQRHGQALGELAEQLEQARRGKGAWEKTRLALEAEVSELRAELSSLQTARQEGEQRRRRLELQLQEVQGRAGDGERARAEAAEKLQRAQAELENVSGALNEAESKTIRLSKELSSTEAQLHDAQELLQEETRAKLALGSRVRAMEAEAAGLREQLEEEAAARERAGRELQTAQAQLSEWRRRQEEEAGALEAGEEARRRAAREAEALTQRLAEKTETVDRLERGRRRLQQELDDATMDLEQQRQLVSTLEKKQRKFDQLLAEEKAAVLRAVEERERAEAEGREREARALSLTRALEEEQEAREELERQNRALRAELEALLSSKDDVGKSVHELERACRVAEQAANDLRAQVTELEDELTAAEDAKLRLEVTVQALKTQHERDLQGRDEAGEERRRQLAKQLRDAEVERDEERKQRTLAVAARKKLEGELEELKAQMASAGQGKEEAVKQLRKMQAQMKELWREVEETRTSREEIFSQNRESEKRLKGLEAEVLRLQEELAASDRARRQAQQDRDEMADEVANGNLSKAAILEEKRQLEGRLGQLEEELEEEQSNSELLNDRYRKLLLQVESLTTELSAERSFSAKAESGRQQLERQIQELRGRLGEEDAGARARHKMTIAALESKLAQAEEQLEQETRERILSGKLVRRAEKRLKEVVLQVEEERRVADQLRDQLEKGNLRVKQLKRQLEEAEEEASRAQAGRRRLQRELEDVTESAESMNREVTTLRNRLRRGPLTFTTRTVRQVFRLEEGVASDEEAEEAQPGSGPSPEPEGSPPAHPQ
Sequence of LIM domain kinase 1 (P53667 whole entry, the tested form may be a part): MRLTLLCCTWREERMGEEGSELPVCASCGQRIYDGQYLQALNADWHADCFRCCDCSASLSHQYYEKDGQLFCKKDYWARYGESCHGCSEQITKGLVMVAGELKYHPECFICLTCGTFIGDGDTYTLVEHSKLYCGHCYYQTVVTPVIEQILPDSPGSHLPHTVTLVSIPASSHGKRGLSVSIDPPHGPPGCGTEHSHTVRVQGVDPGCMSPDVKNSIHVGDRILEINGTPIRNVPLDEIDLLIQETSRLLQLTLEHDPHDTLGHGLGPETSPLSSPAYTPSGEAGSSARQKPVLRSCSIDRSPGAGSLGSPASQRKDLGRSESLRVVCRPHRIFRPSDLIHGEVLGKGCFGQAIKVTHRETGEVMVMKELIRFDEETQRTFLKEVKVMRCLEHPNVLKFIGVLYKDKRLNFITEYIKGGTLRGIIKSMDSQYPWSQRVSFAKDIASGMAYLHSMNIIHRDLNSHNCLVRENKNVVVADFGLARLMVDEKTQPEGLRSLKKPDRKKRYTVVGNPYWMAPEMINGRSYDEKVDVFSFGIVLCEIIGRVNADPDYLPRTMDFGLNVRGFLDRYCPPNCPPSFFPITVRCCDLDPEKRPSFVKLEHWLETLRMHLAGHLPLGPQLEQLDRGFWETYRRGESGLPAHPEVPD
Sequence of Casein kinase I isoform alpha (P48729 whole entry, canonical isoform): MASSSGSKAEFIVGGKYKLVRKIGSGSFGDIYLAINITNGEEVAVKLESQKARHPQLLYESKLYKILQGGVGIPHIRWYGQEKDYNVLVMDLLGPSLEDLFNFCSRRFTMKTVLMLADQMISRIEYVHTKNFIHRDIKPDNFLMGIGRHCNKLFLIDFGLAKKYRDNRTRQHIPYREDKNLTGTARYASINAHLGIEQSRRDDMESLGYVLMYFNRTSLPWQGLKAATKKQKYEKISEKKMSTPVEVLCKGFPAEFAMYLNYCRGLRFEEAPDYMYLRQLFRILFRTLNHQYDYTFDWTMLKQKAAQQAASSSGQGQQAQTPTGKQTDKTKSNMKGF
Sequence of Serine/threonine-protein kinase MRCK gamma (Q6DT37 whole entry): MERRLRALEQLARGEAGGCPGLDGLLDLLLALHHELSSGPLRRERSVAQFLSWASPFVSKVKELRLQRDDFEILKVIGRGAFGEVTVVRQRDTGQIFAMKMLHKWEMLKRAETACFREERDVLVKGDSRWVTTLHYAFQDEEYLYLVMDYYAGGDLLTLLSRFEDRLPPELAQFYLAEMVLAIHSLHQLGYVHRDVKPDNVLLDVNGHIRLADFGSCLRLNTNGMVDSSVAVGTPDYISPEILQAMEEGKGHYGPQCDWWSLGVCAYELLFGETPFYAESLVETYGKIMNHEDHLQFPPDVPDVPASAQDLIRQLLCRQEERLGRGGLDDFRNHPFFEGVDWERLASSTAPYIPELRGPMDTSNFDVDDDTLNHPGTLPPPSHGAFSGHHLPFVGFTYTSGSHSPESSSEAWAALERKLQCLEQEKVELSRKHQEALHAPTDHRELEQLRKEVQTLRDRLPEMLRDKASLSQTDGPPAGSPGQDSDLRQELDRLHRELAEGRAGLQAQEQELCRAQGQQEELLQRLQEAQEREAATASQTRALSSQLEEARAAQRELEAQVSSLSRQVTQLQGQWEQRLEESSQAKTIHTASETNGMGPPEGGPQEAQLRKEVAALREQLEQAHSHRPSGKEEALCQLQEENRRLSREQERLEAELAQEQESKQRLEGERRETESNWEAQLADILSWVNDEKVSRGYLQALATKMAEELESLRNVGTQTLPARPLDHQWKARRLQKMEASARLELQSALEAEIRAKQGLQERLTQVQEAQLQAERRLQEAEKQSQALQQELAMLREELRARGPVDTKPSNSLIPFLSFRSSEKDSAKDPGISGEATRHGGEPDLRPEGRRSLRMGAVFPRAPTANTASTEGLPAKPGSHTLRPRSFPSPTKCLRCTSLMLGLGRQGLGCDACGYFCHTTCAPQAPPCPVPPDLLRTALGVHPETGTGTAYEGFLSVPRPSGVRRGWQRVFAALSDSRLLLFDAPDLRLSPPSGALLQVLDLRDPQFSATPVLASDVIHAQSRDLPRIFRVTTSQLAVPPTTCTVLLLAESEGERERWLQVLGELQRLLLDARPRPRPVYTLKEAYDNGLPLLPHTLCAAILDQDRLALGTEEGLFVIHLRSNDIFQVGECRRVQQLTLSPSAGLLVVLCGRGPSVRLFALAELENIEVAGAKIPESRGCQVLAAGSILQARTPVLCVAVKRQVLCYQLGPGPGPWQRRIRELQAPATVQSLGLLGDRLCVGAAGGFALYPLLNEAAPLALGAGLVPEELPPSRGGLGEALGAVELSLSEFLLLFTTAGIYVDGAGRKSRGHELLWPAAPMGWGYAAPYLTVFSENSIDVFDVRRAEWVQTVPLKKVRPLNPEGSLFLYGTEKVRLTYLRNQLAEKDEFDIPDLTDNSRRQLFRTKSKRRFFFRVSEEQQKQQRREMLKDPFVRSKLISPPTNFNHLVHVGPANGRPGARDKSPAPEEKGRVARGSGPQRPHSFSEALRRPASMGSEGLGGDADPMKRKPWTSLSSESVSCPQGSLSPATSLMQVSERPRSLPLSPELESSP

| SMILES | Kd [1] | Kd (dCTP pyrophosphatase 1) | Kd [2] | Kd (LIM domain kinase 1) | Kd [3] | Kd [4] | Kd [5] | Kd [6] | Kd (Adenosine kinase) | Kd (Rab-like protein 3) | Kd (Myosin-14) | Kd [7] | Kd [8] | Kd [9] | Kd [10] | Kd [11] | Kd [12] |
| --- | --- | --- | --- | --- | --- | --- | --- | --- | --- | --- | --- | --- | --- | --- | --- | --- | --- |
| O=C(NOC[C@H](O)CO)c1ccc(F)c(F)c1Nc1ccc(I)cc1F [MIRDAMETINIB] | > 30 µM (inactive) | > 30 µM (inactive) | > 30 µM (inactive) | > 30 µM (inactive) | > 30 µM (inactive) | > 30 µM (inactive) | > 30 µM (inactive) | > 30 µM (inactive) | > 30 µM (inactive) | > 30 µM (inactive) | > 30 µM (inactive) | > 30 µM (inactive) | > 30 µM (inactive) | > 30 µM (inactive) | > 30 µM (inactive) | > 30 µM (inactive) | > 30 µM (inactive) |
| COc1ccc(-c2ccc3ncc4c(c3c2)n(-c2ccc(N3CCNCC3)c(C(F)(F)F)c2)c(=O)n4C)cn1 [BGT-226 FREE BASE] | > 30 µM (inactive) | > 30 µM (inactive) |  | > 30 µM (inactive) | > 30 µM (inactive) | > 30 µM (inactive) | > 30 µM (inactive) | > 30 µM (inactive) | > 30 µM (inactive) |  | > 30 µM (inactive) | > 30 µM (inactive) | > 30 µM (inactive) | > 30 µM (inactive) | > 30 µM (inactive) | > 30 µM (inactive) | > 30 µM (inactive) |
| C=CC(=O)Nc1cccc(Nc2nc(Nc3ccc(N4CCN(C(C)=O)CC4)cc3OC)ncc2C(F)(F)F)c1 [ROCILETINIB] | > 30 µM (inactive) | > 30 µM (inactive) | > 30 µM (inactive) | > 30 µM (inactive) | > 30 µM (inactive) | > 30 µM (inactive) | > 30 µM (inactive) | > 30 µM (inactive) | > 30 µM (inactive) | > 30 µM (inactive) | > 30 µM (inactive) | > 30 µM (inactive) | > 30 µM (inactive) | > 30 µM (inactive) | > 30 µM (inactive) | > 30 µM (inactive) | > 30 µM (inactive) |
| CCN1CCN(Cc2ccc(Nc3ncc(F)c(-c4cc(F)c5nc(C)n(C(C)C)c5c4)n3)nc2)CC1 [ABEMACICLIB] | > 30 µM (inactive) | > 30 µM (inactive) | > 30 µM (inactive) | > 30 µM (inactive) |  | > 30 µM (inactive) |  | > 30 µM (inactive) | > 30 µM (inactive) | > 30 µM (inactive) | > 30 µM (inactive) | > 30 µM (inactive) | > 30 µM (inactive) | > 30 µM (inactive) | > 30 µM (inactive) | > 30 µM (inactive) | > 30 µM (inactive) |
| O=c1[nH]c([C@@H]2CCCN2)nc2c1oc1ccc(Cl)cc12 | > 30 µM (inactive) | > 30 µM (inactive) | > 30 µM (inactive) | > 30 µM (inactive) | > 30 µM (inactive) | > 30 µM (inactive) | > 30 µM (inactive) | > 30 µM (inactive) | > 30 µM (inactive) | > 30 µM (inactive) | > 30 µM (inactive) | > 30 µM (inactive) | > 30 µM (inactive) | > 30 µM (inactive) | > 30 µM (inactive) | > 30 µM (inactive) | > 30 µM (inactive) |
| CC(C)CC(=O)Nc1[nH]nc2c1CN(C(=O)C1CCN(C)CC1)C2(C)C [PHA-793887] | > 30 µM (inactive) | > 30 µM (inactive) |  | > 30 µM (inactive) |  | > 30 µM (inactive) | > 30 µM (inactive) | > 30 µM (inactive) | > 30 µM (inactive) |  | > 30 µM (inactive) | > 30 µM (inactive) | > 30 µM (inactive) | > 30 µM (inactive) | > 30 µM (inactive) | > 30 µM (inactive) | > 30 µM (inactive) |
| O=C(O)c1ccc2c(c1)nc(Nc1cccc(Cl)c1)c1ccncc12 [SILMITASERTIB] | > 30 µM (inactive) | > 30 µM (inactive) | > 30 µM (inactive) | > 30 µM (inactive) | 1.69 µM (active) | > 30 µM (inactive) | > 30 µM (inactive) | > 30 µM (inactive) | > 30 µM (inactive) | > 30 µM (inactive) | > 30 µM (inactive) | > 30 µM (inactive) | > 30 µM (inactive) | > 30 µM (inactive) | > 30 µM (inactive) | > 30 µM (inactive) | > 30 µM (inactive) |
| C[C@]1(O)C[C@@H](c2nc(-c3ccc4ccc(-c5ccccc5)nc4c3)c3c(N)nccn32)C1 [LINSITINIB] |  | > 30 µM (inactive) |  | > 30 µM (inactive) |  |  | > 30 µM (inactive) | > 30 µM (inactive) | > 30 µM (inactive) | > 30 µM (inactive) | > 30 µM (inactive) | > 30 µM (inactive) | > 30 µM (inactive) | > 30 µM (inactive) | > 30 µM (inactive) | > 30 µM (inactive) | > 30 µM (inactive) |
| C=CCN(/C=C1/C(=O)O[C@H](COC)[C@@]2(C)C1=C(O)C(=O)C1=C2[C@H](OC(C)=O)C[C@]2(C)C(=O)CC[C@@H]12)CC=C [SONOLISIB] | > 30 µM (inactive) | > 30 µM (inactive) | > 30 µM (inactive) | > 30 µM (inactive) | > 30 µM (inactive) | > 30 µM (inactive) | > 30 µM (inactive) | > 30 µM (inactive) | > 30 µM (inactive) | > 30 µM (inactive) |  | > 30 µM (inactive) | > 30 µM (inactive) | > 30 µM (inactive) |  |  | > 30 µM (inactive) |
| C=CC(=O)Nc1cc(Nc2nccc(-c3cn(C)c4ccccc34)n2)c(OC)cc1N(C)CCN(C)C [OSIMERTINIB] | > 30 µM (inactive) | > 30 µM (inactive) | > 30 µM (inactive) | > 30 µM (inactive) | > 30 µM (inactive) | > 30 µM (inactive) | > 30 µM (inactive) | 3.66 µM (active) | > 30 µM (inactive) |  | > 30 µM (inactive) | > 30 µM (inactive) | > 30 µM (inactive) | > 30 µM (inactive) | > 30 µM (inactive) | > 30 µM (inactive) | > 30 µM (inactive) |

Further lines, results first:

| Kd [1] | Kd (dCTP pyrophosphatase 1) | Kd [2] | Kd (LIM domain kinase 1) | Kd [3] | Kd [4] | Kd [5] | Kd [6] | Kd (Adenosine kinase) | Kd (Rab-like protein 3) | Kd (Myosin-14) | Kd [7] | Kd [8] | Kd [9] | Kd [10] | Kd [11] | Kd [12] | SMILES |
| --- | --- | --- | --- | --- | --- | --- | --- | --- | --- | --- | --- | --- | --- | --- | --- | --- | --- |
| > 30 µM (inactive) | > 30 µM (inactive) | > 30 µM (inactive) | > 30 µM (inactive) | > 30 µM (inactive) | > 30 µM (inactive) | > 30 µM (inactive) | > 30 µM (inactive) | > 30 µM (inactive) | > 30 µM (inactive) | > 30 µM (inactive) | > 30 µM (inactive) | > 30 µM (inactive) | > 30 µM (inactive) | > 30 µM (inactive) | > 30 µM (inactive) | > 30 µM (inactive) | Cc1cc(Nc2nc(N[C@@H](C)c3ncc(F)cn3)ncc2Cl)n[nH]1 [AZD-1480] |
|  | > 30 µM (inactive) |  |  |  |  | > 30 µM (inactive) | > 30 µM (inactive) | > 30 µM (inactive) | > 30 µM (inactive) |  | > 30 µM (inactive) |  |  |  | > 30 µM (inactive) | > 30 µM (inactive) | C[C@@]1(C(=O)Nc2ccc(F)nc2)CCCN1c1nc(Nc2cc(C3CC3)n[nH]2)c2cccn2n1 [BMS-754807] |

— ChEMBL document CHEMBL3991601, “The target landscape of clinical kinase drugs” (Science, 2017)
